This note sets out measurements from US20220031680A1, “Donecopride As Neuroprotective Agent In the Treatment of Neurodegenerative Diseases” (priority 2018, published 2022).

SMILES strings stand for the structures.

Test [1] concerns GFAP. Briefly: Astrogliosis (GFAP staining) in 5×FAD mouse brain. As to conditions: 1 mg/kg twice a week for 3 months; for GFAP staining in frontal cortex or hippocampus: compared to controls; for decrease of GFAP staining in entorhinal brain slices: compared to vehicle. In kind it is in vivo. As for the experimental part:
5×FAD mice received chronic treatments with drugs or vehicle according to 2 different protocols. In each experiment, drugs or vehicle solution were administered i.p. twice a week (1 mg/kg). In “Protocol 1”, mice (n=6-7 mice per group) were treated with compounds for two months, from 2 to 4 months of age. In “Protocol 2”, mice (n=7) were treated with compounds for three months, from 1 month to 4 months of age. At the end of each protocol, mice were anesthetized with a mixture of 100 mg/kg ketamine and 10 mg/kg xylazine in saline solution and perfused transcardially with PBS. Brains were quickly isolated on ice, the olfactory bulbs and cerebellum removed and the two hemispheres divided. One hemisphere was frozen on dry ice and stored at −80° C. for biochemical analysis, while the other was post-fixed in 4% PFA for immunohistochemistry (IHC).
Thirty-micrometer-thick sections were cut using a vibratome (Microm HM 650V, Thermo Scientific, Saint Herblain, France) and stored in cryoprotectant medium at −20° C. For the labeling of amyloid plaques, free-floating tissue sections of frontal cortex, hippocampus and entorhinal cortex (coordinates from the bregma: frontal cortex=1.98 mm, hippocampus=−1.94 mm, entorhinal cortex=−3.08 mm) were extensively washed in PBS and then incubated in blocking solution (PBS; 3% BSA; 0.1% Triton X-100) for 1 h. Sections were stained with Hoechst dye (1:1000, Life Technologies, Saint Aubin, France) for 15 minutes to detect cell nuclei and then with freshly prepared thioflavin T solution (#T3516-5G, Sigma-Aldrich) (final concentration: 0.01 mg/ml in blocking buffer) for 15 minutes. After washing in 70% ethanol for 5 minutes, samples were mounted on poly-lysine slides with coverslips. For GFAP (glial fibrillary acidic protein) staining, free-floating brain sections were blocked as before and incubated with polyclonal rabbit anti-GFAP (1:1000, Z0334, Dako, Les Ullis, France) at 4° C. overnight. After thioflavin T staining and washing with 70% ethanol, the secondary Alexafluor 594 goat anti-rabbit antibody (1:1000, A11012, Life Technologies) was added for 2 h. PBS washes and mounting were performed as described before.
Images were acquired with an Axiolmager Z1 microscope (Carl Zeiss S.A.S., Marly le Roi, France). Analysis of thioflavin T staining was performed blindly and data are presented as the mean number of particles per mm^2 in two to three tissue sections from the same brain area/animal (Image J software). GFAP expression was quantified using Image J software and results are expressed as area fractions.
28 female 5×FAD mice (C57BL/6J genetic background) were used in this study. Mice received vehicle or compounds (1 mg/kg) i.p., twice a week for three months, from 1 to 4 months of age.

Test [2] relates to 5×FAD mice. In words: Novel object recognition test in 5×FAD mice. In kind it is in vivo, mouse. As to conditions: 1 mg/kg twice a week for 3 months; 24 h inter-session interval. The method, then:
Animal experiments were carried out in accordance with the Directive by the Council of the European Communities of Nov. 24, 1986 (86/609/EEC). All efforts were made to minimize animal suffering and to reduce the number of mice used. The generation of 5×FAD mice was described in Oakley et al. (2006) J. Neurosci. 26:10129-10140. These transgenic mice overexpress both human APP (695) harboring the Swedish (K670N, M671L), Florida (1716V) and London (V7171) familial AD (FAD) mutations and human Presenilin 1 (PS1) harboring the two FAD mutations M146L and L286V. Expression of both transgenes is regulated by neuronal-specific elements of the mouse Thy1 promoter. The 5×FAD strain (B6/SJL genetic background) was maintained by crossing hemizygous transgenic mice with B6/SJL F1 breeders. The 5×FAD strain (C57BL/6J genetic background) was maintained by crossing hemizygous transgenic mice with C57BL/6J F1 breeders. All animals were genotyped by PCR using tail genomic DNA. Transgenic and WT mice were bred in our animal facility, had access to food and water ad libitum and were housed under a 12 h light-dark cycle at 22-24° C. Female 5×FAD mice were used in this study. For each experiment, the age of mice is indicated in months (with a two-week range).
Compounds were resuspended in DMSO (37.5 μg/μl, stored at −20° C.) and freshly diluted 1:250 in 0.9% NaCl prior administration. Vehicle solution (0.9% NaCl, 0.4% DMSO) was used as control.
5×FAD mice received chronic treatments with drugs or vehicle according to 2 different protocols. In each experiment, drugs or vehicle solution were administered i.p. twice a week (1 mg/kg). […]
The cognitive performance of mice was tested using the novel object recognition (NOR) test (Bevins and Besheer (2006) Nat. Protoc. 1:1306-1311). […] The whole experiment was video-recorded and object exploration [time spent by the mouse nose in contact with the object or by sniffing it at a distance s 1 cm] was blindly measured. […] A discrimination index was also calculated ([novel−familiar]/[familiar+novel]). […]

As to `COc1cc(N)c(Cl)cc1C(=O)CCC1CCN(CC2CCCCC2)CC1` [Donecopride], in test [1], the “GFAP staining in frontal cortex or hippocampus” value was “not significantly different” and the “decrease of GFAP staining in entorhinal brain slices” value is given as 54±10%. Moreover, the “recognition memory, exploration of novel vs familiar object (NOR)” value in test [2] is given as “prevent memory alteration”.

Take `COc1cc(N)c(F)cc1C(=O)CCC1CCN(CC2CCCCC2)CC1` [Flucopride]: in test [1], the “GFAP staining in frontal cortex or hippocampus” value is on record as “not significantly different” and the “decrease of GFAP staining in entorhinal brain slices” value worked out at 51±5%. The “recognition memory, exploration of novel vs familiar object (NOR)” value in test [2] is on record as “prevent memory alteration”.
